Results on 20 compounds are retold here after ChEMBL document CHEMBL3627714, “Development of a novel class of potent and selective FIXa inhibitors” (Bioorg Med Chem Lett, 2015).

One may read the Ki as a measure of affinity in units of concentration, obtained from inhibition or displacement. Low readings indicate tighter binding, high ones weaker binding. The IC50 is the point on the concentration scale where inhibition reaches its midpoint. Usually bioavailability stands for the share of a dose that reaches the circulation, judged against a reference dose that is usually intravenous. Read a high bioavailability as good availability. What is called half-life is how long it takes for the measured level to halve. Read a low half-life as fast loss.

The target of series [1] is Coagulation factor IX (Homo sapiens, UniProt P00740). The series is described as follows: Inhibition of human coagulation factor 9a using fluorescent peptide CH3SO2-D-CHG-Gly-Arg-AFC-AcoH as substrate.
For series [2], the target named is Coagulation factor X (Homo sapiens, UniProt P00742). The experiment in a line: Inhibition of human coagulation factor 10a using fluorescent peptide nAcetyl-KPR-AFC as substrate.
The subject of series [3] is Plasma. The series is described as follows: Anticoagulant activity in 1 pM tissue factor stimulated human CTI-citrated plasma assessed as inhibition of thrombin generation incubated for 5 mins by calibrated automated thrombogram analysis. The series is classed as functional, cell-free.
Series [4] has as its system Plasma. The experiment in a line: Anticoagulant activity in 20 pM tissue factor stimulated human CTI-citrated plasma assessed as inhibition of thrombin generation incubated for 5 mins by calibrated automated thrombogram analysis. The series is classed as functional, cell-free.
The subject of series [5] is Plasma. The series is described as follows: Anticoagulant activity in 0.3 pM recombinant coagulation factor 11a stimulated human CTI-citrated plasma assessed as inhibition of thrombin generation incubated for 5 mins by calibrated automated thrombogram analysis. The series is classed as functional, cell-free.
For series [6], the system named is Plasma. The series is described as follows: Anticoagulant activity in 3 pM tissue factor stimulated human CTI-citrated plasma assessed as inhibition of thrombin generation incubated for 5 mins by calibrated automated thrombogram analysis. The series is classed as functional, cell-free.
The subject of series [7] is Plasma. The experiment in a line: Anticoagulant activity in 0.1 pM recombinant coagulation factor 11a stimulated human CTI-citrated plasma assessed as inhibition of thrombin generation incubated for 5 mins by calibrated automated thrombogram analysis. The series is classed as functional, cell-free.
The test system of series [8] is Plasma. The experiment in a line: Anticoagulant activity in 1 pM recombinant coagulation factor 11a stimulated human CTI-citrated plasma assessed as inhibition of thrombin generation incubated for 5 mins by calibrated automated thrombogram analysis. The series is classed as functional, cell-free.
Series [9] has as its system Plasma. The experiment in a line: Anticoagulant activity in 10 pM tissue factor stimulated human CTI-citrated plasma assessed as inhibition of thrombin generation incubated for 5 mins by calibrated automated thrombogram analysis. The series is classed as functional, cell-free.
Series [10] has as its system Plasma. The series is described as follows: Anticoagulant activity in 3 pM recombinant coagulation factor 11a stimulated human CTI-citrated plasma assessed as inhibition of thrombin generation incubated for 5 mins by calibrated automated thrombogram analysis. The series is classed as functional, cell-free.
Series [11] has as its system Plasma. The series is described as follows: Anticoagulant activity in 10 pM recombinant coagulation factor 11a stimulated human CTI-citrated plasma assessed as inhibition of thrombin generation incubated for 5 mins by calibrated automated thrombogram analysis. The series is classed as functional, cell-free.
The subject of series [12] is Plasma. The series is described as follows: Anticoagulant activity in 0.3 pM tissue factor stimulated human CTI-citrated plasma assessed as inhibition of thrombin generation incubated for 5 mins by calibrated automated thrombogram analysis. The series is classed as functional, cell-free.
Series [13] can be described thus: Oral bioavailability in rat at 2 mg/kg. The series is classed as ADME, organism-based. Particulars: in vivo.
The target in series [14] is T1, Cytochrome P450 2C8 (Homo sapiens, UniProt P10632).
T1 sequence (P10632 whole entry): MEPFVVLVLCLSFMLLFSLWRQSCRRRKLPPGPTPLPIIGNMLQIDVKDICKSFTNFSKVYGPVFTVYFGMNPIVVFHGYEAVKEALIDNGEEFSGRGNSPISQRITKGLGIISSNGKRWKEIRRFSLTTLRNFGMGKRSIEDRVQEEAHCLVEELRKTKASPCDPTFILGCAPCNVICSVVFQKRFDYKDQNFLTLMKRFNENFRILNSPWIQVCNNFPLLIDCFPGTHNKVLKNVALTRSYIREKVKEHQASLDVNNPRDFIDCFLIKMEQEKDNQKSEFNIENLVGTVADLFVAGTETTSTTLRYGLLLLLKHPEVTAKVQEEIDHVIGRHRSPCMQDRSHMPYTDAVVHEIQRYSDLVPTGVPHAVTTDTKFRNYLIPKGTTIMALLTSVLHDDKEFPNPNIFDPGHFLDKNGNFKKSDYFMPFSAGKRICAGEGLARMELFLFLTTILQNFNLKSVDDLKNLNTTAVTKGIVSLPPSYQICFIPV
The series is described as follows: Inhibition of CYP2C8 (unknown origin). The series is classed as ADME.

Series [15] addresses Voltage-gated inwardly rectifying potassium channel KCNH2 (Homo sapiens, UniProt Q12809).
Series [16] in a line: Clearance in rat at 2 mg/kg, po and 0.5 mg/kg, iv. The series is classed as ADME, organism-based. As to conditions: in vivo.
Series [17] relates to Rattus norvegicus. The series is described as follows: Dose normalized AUC in rat at 2 mg/kg, po. The series is classed as ADME, organism-based. Particulars: in vivo.
Series [18] addresses Cytochrome P450 3A4 (Homo sapiens, UniProt P08684). The series is described as follows: Inhibition of CYP3A4 (unknown origin). The series is classed as ADME.
Series [19] addresses Cytochrome P450 2D6 (Homo sapiens, UniProt P10635). The series is described as follows: Inhibition of CYP2D6 (unknown origin). The series is classed as ADME.
The nature of series [20]: Half life in rat at 2 mg/kg, po and 0.5 mg/kg, iv. The series is classed as ADME, organism-based. Particulars: in vivo.
Series [21] has as its target Cytochrome P450 2C9 (Homo sapiens, UniProt P11712). The experiment in a line: Inhibition of CYP2C9 (unknown origin). The series is classed as ADME.

SMILES strings stand for the structures. A value given as a limit tells only on which side of the number the result lay.

Cytochrome P450 2D6, sequence (P10635 whole entry): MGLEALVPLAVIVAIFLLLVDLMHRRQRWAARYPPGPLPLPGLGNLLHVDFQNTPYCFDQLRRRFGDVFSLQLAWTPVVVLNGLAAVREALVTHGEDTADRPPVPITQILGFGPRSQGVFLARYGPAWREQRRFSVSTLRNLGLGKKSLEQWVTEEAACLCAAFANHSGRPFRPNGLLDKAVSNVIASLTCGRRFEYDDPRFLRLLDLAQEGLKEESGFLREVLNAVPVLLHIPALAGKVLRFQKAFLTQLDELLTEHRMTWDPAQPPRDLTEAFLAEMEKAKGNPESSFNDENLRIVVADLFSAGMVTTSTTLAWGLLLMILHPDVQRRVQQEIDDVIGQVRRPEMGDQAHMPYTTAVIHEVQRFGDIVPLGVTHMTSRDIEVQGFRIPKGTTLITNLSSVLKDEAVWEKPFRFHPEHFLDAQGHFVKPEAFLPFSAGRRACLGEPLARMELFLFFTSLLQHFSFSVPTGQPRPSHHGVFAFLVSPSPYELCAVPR
Voltage-gated inwardly rectifying potassium channel KCNH2, sequence (Q12809 whole entry): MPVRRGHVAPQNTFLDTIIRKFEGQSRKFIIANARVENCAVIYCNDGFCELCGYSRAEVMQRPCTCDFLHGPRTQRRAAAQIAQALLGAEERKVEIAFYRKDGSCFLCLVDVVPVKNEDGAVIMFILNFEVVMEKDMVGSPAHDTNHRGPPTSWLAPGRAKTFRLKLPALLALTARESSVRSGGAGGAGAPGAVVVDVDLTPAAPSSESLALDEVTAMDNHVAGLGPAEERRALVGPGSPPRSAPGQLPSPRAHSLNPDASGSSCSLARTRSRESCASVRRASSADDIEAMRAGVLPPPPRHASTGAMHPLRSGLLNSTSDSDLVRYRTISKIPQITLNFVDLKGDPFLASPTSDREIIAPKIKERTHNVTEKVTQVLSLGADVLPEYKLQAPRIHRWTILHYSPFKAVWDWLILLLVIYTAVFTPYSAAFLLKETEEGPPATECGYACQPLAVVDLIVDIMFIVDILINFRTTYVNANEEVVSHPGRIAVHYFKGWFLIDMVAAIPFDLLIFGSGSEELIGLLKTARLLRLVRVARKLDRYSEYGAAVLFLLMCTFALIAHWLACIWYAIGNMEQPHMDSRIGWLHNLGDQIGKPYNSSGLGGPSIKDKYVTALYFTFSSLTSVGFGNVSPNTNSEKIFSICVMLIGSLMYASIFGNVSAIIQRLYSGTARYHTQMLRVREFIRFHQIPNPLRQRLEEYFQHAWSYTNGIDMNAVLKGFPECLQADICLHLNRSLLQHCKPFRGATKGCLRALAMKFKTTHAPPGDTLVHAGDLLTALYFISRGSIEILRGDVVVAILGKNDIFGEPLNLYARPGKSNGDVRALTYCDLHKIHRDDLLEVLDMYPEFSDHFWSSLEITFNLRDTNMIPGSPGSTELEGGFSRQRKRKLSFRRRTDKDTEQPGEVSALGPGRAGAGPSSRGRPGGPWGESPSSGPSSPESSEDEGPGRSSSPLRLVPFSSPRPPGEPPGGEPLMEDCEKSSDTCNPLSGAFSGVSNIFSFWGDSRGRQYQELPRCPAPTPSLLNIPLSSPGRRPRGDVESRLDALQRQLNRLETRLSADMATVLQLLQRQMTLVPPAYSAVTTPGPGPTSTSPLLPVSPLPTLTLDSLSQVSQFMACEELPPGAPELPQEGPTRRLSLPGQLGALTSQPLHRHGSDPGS
Coagulation factor IX, sequence (P00740 47-191 limits assumed): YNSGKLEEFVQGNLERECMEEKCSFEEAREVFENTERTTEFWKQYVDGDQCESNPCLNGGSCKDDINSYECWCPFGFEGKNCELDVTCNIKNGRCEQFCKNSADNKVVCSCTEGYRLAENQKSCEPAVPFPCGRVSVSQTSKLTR
Coagulation factor IX, sequence (P00740 227-461 limits assumed): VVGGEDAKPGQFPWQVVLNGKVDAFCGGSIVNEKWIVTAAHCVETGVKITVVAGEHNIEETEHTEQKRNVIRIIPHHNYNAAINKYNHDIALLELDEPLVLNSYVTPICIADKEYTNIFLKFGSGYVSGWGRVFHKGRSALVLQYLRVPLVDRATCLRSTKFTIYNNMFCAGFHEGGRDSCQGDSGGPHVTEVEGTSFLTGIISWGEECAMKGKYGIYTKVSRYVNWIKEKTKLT
Cytochrome P450 3A4, sequence (P08684 whole entry): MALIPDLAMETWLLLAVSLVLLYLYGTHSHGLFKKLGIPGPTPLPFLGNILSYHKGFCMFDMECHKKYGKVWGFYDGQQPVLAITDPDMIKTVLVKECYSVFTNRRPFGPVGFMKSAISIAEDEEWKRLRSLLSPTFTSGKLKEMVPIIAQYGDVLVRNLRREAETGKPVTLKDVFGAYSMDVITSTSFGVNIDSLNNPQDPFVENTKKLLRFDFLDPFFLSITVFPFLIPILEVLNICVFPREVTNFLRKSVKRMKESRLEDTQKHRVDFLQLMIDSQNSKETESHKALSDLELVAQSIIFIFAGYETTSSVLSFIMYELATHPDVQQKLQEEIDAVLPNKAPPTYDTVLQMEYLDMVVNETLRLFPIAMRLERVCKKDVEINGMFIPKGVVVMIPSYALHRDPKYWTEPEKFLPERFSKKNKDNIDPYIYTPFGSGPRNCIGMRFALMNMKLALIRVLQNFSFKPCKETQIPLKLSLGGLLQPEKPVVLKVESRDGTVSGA
Coagulation factor X, sequence (P00742 41-179 limits assumed): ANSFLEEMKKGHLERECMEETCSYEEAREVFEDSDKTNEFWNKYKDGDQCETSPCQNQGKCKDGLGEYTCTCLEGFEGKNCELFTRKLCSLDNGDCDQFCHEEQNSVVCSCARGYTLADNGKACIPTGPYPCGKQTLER
Coagulation factor X, sequence (P00742 235-488 limits assumed): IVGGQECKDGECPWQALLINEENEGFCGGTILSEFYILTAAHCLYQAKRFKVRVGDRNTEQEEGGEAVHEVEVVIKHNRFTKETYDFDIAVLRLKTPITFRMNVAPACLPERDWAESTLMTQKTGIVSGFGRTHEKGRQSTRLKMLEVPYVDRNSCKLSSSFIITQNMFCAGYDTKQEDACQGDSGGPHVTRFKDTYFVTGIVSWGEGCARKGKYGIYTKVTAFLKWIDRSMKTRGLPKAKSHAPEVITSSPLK
Cytochrome P450 2C9, sequence (P11712 whole entry): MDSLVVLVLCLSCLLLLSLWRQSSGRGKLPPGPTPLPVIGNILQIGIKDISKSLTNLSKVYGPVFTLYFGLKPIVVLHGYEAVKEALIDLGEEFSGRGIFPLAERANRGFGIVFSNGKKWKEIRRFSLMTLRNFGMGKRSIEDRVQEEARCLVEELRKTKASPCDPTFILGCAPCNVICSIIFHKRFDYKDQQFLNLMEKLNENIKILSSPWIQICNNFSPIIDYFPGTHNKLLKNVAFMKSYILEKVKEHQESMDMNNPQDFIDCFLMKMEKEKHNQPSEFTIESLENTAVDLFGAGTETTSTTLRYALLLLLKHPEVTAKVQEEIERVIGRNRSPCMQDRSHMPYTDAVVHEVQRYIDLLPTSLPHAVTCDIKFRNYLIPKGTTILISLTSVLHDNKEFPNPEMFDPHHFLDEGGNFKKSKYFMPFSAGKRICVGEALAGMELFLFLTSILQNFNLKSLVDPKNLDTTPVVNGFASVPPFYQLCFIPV

For the compound `Cc1cc2nc([C@@H](CNC(=O)c3c(F)cc(-n4cnnc4)cc3Cl)c3ccccc3)[nH]c2cc1C`, the inhibition constant (Ki) in series [1] worked out at 0.0152 µM; in [2], 0.544 µM.

`Cc1cc2nc([C@@H](CNC(=O)c3ccc(-n4cnnc4)cc3Cl)c3cccnc3)[nH]c2cc1C`: the inhibition constant Ki is 0.0154 µM in series [1] and 1.6 µM in series [2].

With `Cc1ncn(-c2cc(Cl)c(C(=O)NC[C@@H](c3cccc(F)c3)c3nc4cc(C)c(Cl)cc4[nH]3)c(Cl)c2)n1`, the values for the inhibitory constant (Ki) in [1] and in series [2] were 0.0136 µM and 15.2 µM, respectively.

On to `Cc1ncn(-c2cc(Cl)c(C(=O)NC[C@@H](c3cccc(F)c3)c3cc(=O)c4c(C)ccc(F)c4[nH]3)c(Cl)c2)n1`, for which the Ki is 0.0033 µM in [1] and over 28.9 µM in series [2].

As to `COc1ccc(-n2nc(C(N)=O)c3c2C(=O)N(c2ccc(N4CCCCC4=O)cc2)CC3)cc1` [APIXABAN], the IC50 was found to be 0.0337 µM in [3]; 0.299 µM in series [4]; 0.116 µM in series [5]; 0.0484 µM in series [6]; 0.0513 µM in series [7]; 0.191 µM in series [8]. Further, the IC50 worked out at 0.159 µM in series [9], 0.747 µM in series [10], 2.41 µM in series [11] and 0.0476 µM in series [12].

Take `Cc1ncn(-c2cc(Cl)c(C(=O)NC[C@@H](c3cccc(F)c3)c3ccc4c(C)ccc(F)c4n3)c(Cl)c2)n1`: the Ki was 0.0104 µM in series [1] and over 28.9 µM in series [2].

For the compound `Cc1ncn(-c2cc(Cl)c(C(=O)NC[C@@H](c3cccc(F)c3)c3ccc4[nH]c(C)nc4c3)c(Cl)c2)n1`, the IC50 in series [3] was 1.16 µM; in series [4], 1.9 µM; in series [5] it was 1.6 µM; in [14] it was 1.57 µM; in series [15], 19.9 µM; in series [6] it was 0.953 µM. The half-maximal inhibitory concentration (IC50) was 0.303 µM in series [7]; 2.52 µM in series [8]; 1.85 µM in series [9]; 7.16 µM in series [10]; over 50 µM in series [18]; 31.6 µM in [19]. Further, the values for the IC50 in series [11], in series [12] and in [21] were 22.4 µM, 1.64 µM and 24.9 µM, respectively. In addition, in series [13], the bioavailability is 11.1%. In addition, the Ki in [1] amounted to 0.0091 µM; in series [2], 2.8 µM. The clearance in series [16] is 36.5 mL/min/kg. Also, in series [17], the AUC/dose is 0.097 µM·h/mg/kg. In series [20], this compound gave a half-life of 1.24 h.

For `Cc1cc2nc([C@@H](CNC(=O)c3c(Cl)cc(-n4cnnc4)cc3Cl)c3ccccc3)[nH]c2cc1C`, the figures for the Ki in [1] and in series [2] were 0.0036 µM and 0.105 µM, respectively.

On to `COc1cc2nc([C@@H](CNC(=O)c3c(Cl)cc(-n4cnc(C)n4)cc3Cl)c3cccc(F)c3)[nH]c2cc1Cl`, for which the bioavailability in [13] was 7.89%. The IC50 in series [14] was 0.456 µM; in [15] it was 10.9 µM; in [18], 33.3 µM; in series [19], over 50 µM; in series [21], 9.09 µM. The values for the Ki in series [1] and in series [2] were 0.0029 µM and 1.93 µM, respectively. This compound returned a clearance in series [16] of 42.1 mL/min/kg. The compound also registered an AUC/dose in series [17] of 0.056 µM·h/mg/kg. The compound further had a half-life in [20] of 1.03 h.

`Cc1cc2nc([C@@H](CNC(=O)c3ccc(-n4cnnc4)cc3Cl)c3ccccc3F)[nH]c2cc1C`: the Ki is 0.0193 µM in series [1] and 0.412 µM in series [2].

As for `Cc1ncn(-c2cc(Cl)c(C(=O)NC[C@@H](c3cccc(F)c3)c3nc4c(C)cc(Cl)cc4[nH]3)c(Cl)c2)n1`, the bioavailability in [13] was 57.3%. Further, the IC50 in series [14] was 4.04 µM; in [15], 3.05 µM; in series [18], over 50 µM; in [19], over 50 µM; in [21], 22.4 µM. For the same compound, the Ki in series [1] is 0.0062 µM; in [2] it was over 28.9 µM. In [16], this compound came in with a clearance of 3.84 mL/min/kg. In addition, the AUC/dose in series [17] amounted to 4.36 µM·h/mg/kg. Besides, in [20], the half-life was 1.66 h.

Take `Cc1cc2nc([C@@H](CNC(=O)c3c(Cl)cc(-n4cnnc4)cc3C(F)(F)F)c3ccccc3)[nH]c2cc1C`: the Ki was 0.0218 µM in series [1] and 0.34 µM in series [2].

In turn, `Cc1ncn(-c2cc(Cl)c(C(=O)NC[C@@H](c3cccc(F)c3)c3nc4c(F)ccc(C)c4c(=O)[nH]3)c(Cl)c2)n1` came in with a bioavailability in series [13] of 14.1%. The half-inhibitory concentration (IC50) in series [14] was 24.4 µM; in series [15], over 60 µM; in series [18], over 50 µM; in series [19], over 50 µM; in series [21], 42.8 µM. The Ki in [1] is 0.001 µM; in series [2], over 28.9 µM. For the same compound, the clearance in series [16] was found to be 15.5 mL/min/kg. The compound further came in with an AUC/dose in series [17] of 0.284 µM·h/mg/kg. Besides, in series [20], the half-life was 1.12 h.

As to `Cc1ncn(-c2cc(Cl)c(C(=O)NC[C@@H](c3ccccc3)c3nc4cc(C)c(C)cc4[nH]3)c(Cl)c2)n1`, the Ki in [1] is 0.0208 µM; in series [2], 2.47 µM.

On to `COc1cc(-n2cnnc2)cc(Cl)c1C(=O)NC[C@@H](c1ccccc1)c1nc2cc(C)c(C)cc2[nH]1`, for which the Ki came to 0.0148 µM in series [1] and 0.245 µM in series [2].

Turning to `Cc1cc2nc([C@@H](CNC(=O)c3c(C)cc(-n4cnnc4)cc3Cl)c3ccccc3)[nH]c2cc1C`, the Ki in series [1] was 0.008 µM; in series [2], 0.195 µM.

As to `Cc1ncn(-c2cc(Cl)c(C(=O)NC[C@@H](c3cccc(F)c3)c3cnc4[nH]c(C)cc4c3)c(Cl)c2)n1`, the Ki in series [1] is 0.0037 µM; in [2], over 28.9 µM.

Regarding `Cc1cc2nc([C@@H](CNC(=O)c3ccc(-n4cnnc4)cc3Cl)c3cccc(F)c3)[nH]c2cc1C`, the values for the Ki in [1] and in series [2] were 0.0057 µM and 1.01 µM, respectively.

As to `Cc1ncn(-c2cc(Cl)c(C(=O)NC[C@@H](c3cccc(F)c3)c3nc4ccc(Cl)cc4[nH]3)c(Cl)c2)n1`, the bioavailability in series [13] was 48.2%. Besides, the IC50 was 5.28 µM in series [14], over 50 µM in series [18], 30.4 µM in series [19] and 19.8 µM in [21]. Moreover, the results for the Ki in series [1] and in [2] were 0.0098 µM and 20.7 µM, respectively. In series [16], the clearance was 8.77 mL/min/kg. Moreover, the AUC/dose in series [17] came to 1.74 µM·h/mg/kg. Besides, in [20], the half-life is 0.8 h.

Consider `Cc1cc2nc([C@@H](CNC(=O)c3ccc(-n4cnnc4)cc3Cl)c3ccc(F)cc3)[nH]c2cc1C`, for which the Ki in series [1] came out at 0.0084 µM; in series [2] it was 1.51 µM.
